Test results as given in ChEMBL document CHEMBL3508693 (2016).

Key:
[1] = Terminal elimination half-life of SPP100 following single oral dose of SPP100 75 mg capsule studied in healthy human; format: ADME, organism-based; details: plasma
[2] = Terminal elimination half-life of SPP100 following single oral dose of SPP100 600 mg capsule studied in healthy human; format: ADME, organism-based; details: plasma
CYP2C9 [3] = target: T1, CYP2C9 (Homo sapiens, UniProt P11712); test: Inhibitory activity of 20 uM SPP100 on 227 Pmoles of cDNA-derived CYP2C9 enzyme in microsome prepared from human lymphoblastoid cell line; format: ADME, microsomes; set-up: conc 20 uM, interact cpd conc 6 uM; details: probe diclofenac
CYP2C9 [4] = target: T1, CYP2C9; test: Inhibitory activity of 200 uM SPP100 on 220 Pmoles of cDNA-derived CYP2C9 enzyme in microsome prepared from human lymphoblastoid cell line; format: ADME, microsomes; set-up: conc 200 uM, interact cpd conc 6 uM; details: probe diclofenac
CYP2C19 [5] = target: T2, CYP2C19 (Homo sapiens, UniProt P33261); test: Inhibitory activity of 20 uM SPP100 on 1174 Pmoles of cDNA-derived CYP2C19 enzyme in microsome prepared from human lymphoblastoid cell line; format: ADME, microsomes; set-up: conc 20 uM, interact cpd conc 50 uM; details: probe (S)-mephenytoin
CYP2C19 [6] = target: T2, CYP2C19; test: Inhibitory activity of 20 uM SPP100 on 1131 Pmoles of cDNA-derived CYP2C19 enzyme in microsome prepared from human lymphoblastoid cell line; format: ADME, microsomes; set-up: conc 20 uM, interact cpd conc 50 uM; details: probe (S)-mephenytoin
[7] = % SPP100 recovered in hydrolysed following single intravenous administration of 10 mg.Kg-1 [14C] aliskiren hemifumarate in male rat; format: ADME, organism-based, HAN:WIST(SPF), Bile; details: in vivo
[8] = Excretion (0-24h) of radioactivity in faeces following intravenous administration of [14C] aliskiren hemifumarate at 1 mg.Kg-1 level in marmoset; format: ADME, organism-based, Callithrix jacchus, Feces; details: in vivo
[9] = Excretion (0-168h) of radioactivity in faeces following oral administration of [14C] aliskiren hemifumarate at 3 mg.Kg-1 level in marmoset; format: ADME, organism-based, Callithrix jacchus, Feces; details: in vivo
[10] = Excretion (24h) of radioactivity in faeces following oral administration of [14C] aliskiren hemifumarate at 100 mg.Kg-1 level in rat; format: ADME, organism-based, Lister-Hooded, Feces; details: in vivo
[11] = Cmax of [14C] aliskiren hemifumarate following single intravenous dose of [14C] aliskiren hemifumarate at 10 mg.Kg-1 level in mouse; format: ADME, organism-based, TgRasH2, Plasma; details: in vivo
[12] = Mean excretion of radioactivity (0-24h) in urine and faeces following single intravenous dose of 10 mg.Kg-1 [14C] aliskiren hemifumarate in mouse; format: ADME, organism-based, TgRasH2, Urine/Feces; details: in vivo
[13] = Mean excretion of radioactivity (24-48h) in urine and faeces following single oral dose of 500 mg.Kg-1 [14C] aliskiren hemifumarate in mouse; format: ADME, organism-based, TgRasH2, Urine/Feces; details: in vivo
[14] = Plasma clearance (0-96h) of total radioactivity following oral administration of [14C] aliskiren hemifumarate at 100 mg.Kg-1 level in rat; format: ADME, organism-based, Albino HAN:WIST; details: in vivo, iv
[15] = Elimination (0-96h) of radioactivity via biliary route following oral administration of [14C] aliskiren hemifumarate at 100 mg.Kg-1 level in rat; format: ADME, organism-based, Albino HAN:WIST, Bile; details: in vivo
[16] = Mean excretion of radioactivity (0-24h) in urine and faeces following single oral dose of 100 mg.Kg-1 [14C] aliskiren hemifumarate in rat; format: ADME, organism-based, Albino HAN:WIST, Urine/Feces; details: in vivo
Cytochrome P450 3A7 = Cytochrome P450 3A7 (Homo sapiens, UniProt P24462); test: Metabolic clearance (ul.min.nmol-1 CYP) of aliskiren hemifumarate for CYP3A7 was determined in human liver microsome incubated with [14C]SPP100 hemifumarate; format: ADME; details: microsomes
[17] = Cmax of radioactivity following repeated oral administration of [14C] aliskiren hemifumarate at 100 mg.Kg-1 level studied after 2h of dosing on day 10 in rat; format: ADME, organism-based, Albino HAN:WIST; details: in vivo, read-out: Cmax(10)
[18] = Concentration of radioactivity in the colon wall following repeated oral administration of [14C] aliskiren hemifumarate at 100 mg.Kg-1 level studied at 24h after 7th dose in rat; format: ADME, organism-based, Albino HAN:WIST; details: in vivo
[19] = Concentration of radioactivity in the brown fat following repeated oral administration of [14C] aliskiren hemifumarate at 100 mg.Kg-1 level studied at 24h after 10th dose in rat; format: ADME, organism-based, Albino HAN:WIST, Brown adipose tissue; details: in vivo
[20] = Concentration of radioactivity in the kidney medulla following repeated oral administration of [14C] aliskiren hemifumarate at 100 mg.Kg-1 level studied at 24h after 7th dose in rat; format: ADME, organism-based, Albino HAN:WIST, Renal medulla; details: in vivo
[21] = AUC of unlabeled aliskiren hemifumarate following single intravenous dose of aliskiren hemifumarate at 10 mg.Kg-1 level in mouse; format: ADME, organism-based; details: TgRasH2, mouse, plasma
[22] = Cmax/dose (0-96h) of unlabeled aliskiren hemifumarate following oral administration of aliskiren hemifumarate at 100 mg.Kg-1 level in rat; format: ADME, organism-based, Albino HAN:WIST, Plasma; details: in vivo
[23] = Effect of 2 week oral dosing of aliskiren hemifumarate at 50 mg.Kg-1 level on blood urea nitrogen level in female Callithrix jacchus; format: toxicity, organism-based, Plasma; details: marmoset, 336 h
[24] = Effect of 2 week oral dosing of aliskiren hemifumarate at 100 mg.Kg-1 level on plasma magnesium level in male Callithrix jacchus; format: toxicity, organism-based; details: marmoset, 336 h
[25] = Cmax of aliskiren hemifumarate following 2 week oral dosing of aliskiren hemifumarate at 100 mg.Kg-1 level studied on day 14 in female Callithrix jacchus; format: ADME, organism-based; details: marmoset, plasma
[26] = Cmaxspec of aliskiren hemifumarate following 2 week oral dosing of aliskiren hemifumarate at 100 mg.Kg-1 level studied on day 1 in female Callithrix jacchus; format: ADME, organism-based, Plasma; details: marmoset, in vivo, 336 h
[27] = Effect of 4 week oral dietary dosing of aliskiren hemifumarate at 2000 mg.Kg-1 level on ovarian follicular atresia in female mouse; format: toxicity, organism-based, CB6F1-TGrasH2, Ovarian follicle; details: in vivo, 672 h
[28] = Effect of 4 week oral dietary dosing of aliskiren hemifumarate at 2000 mg.Kg-1 level on density of uterine gland in female mouse; format: toxicity, organism-based, CB6F1-TGrasH2, Endometrial gland; details: in vivo, 672 h
[29] = AUC/dose (0-96h) of unlabeled aliskiren hemifumarate following intravenous administration of aliskiren hemifumarate at 10 mg.Kg-1 level in rat; format: ADME, organism-based, Albino HAN:WIST, Plasma; details: in vivo
[30] = Bioavailability (0-96h) of unlabeled aliskiren hemifumarate following oral administration of aliskiren hemifumarate at 100 mg.Kg-1 level in rat; format: ADME, organism-based; details: Albino HAN:WIST, plasma
[31] = Cmax of aliskiren hemifumarate following 4 week oral dietary dosing of aliskiren hemifumarate at 2000 mg.Kg-1 level in male mouse; format: ADME, organism-based; details: CB6F1-TGrasH2, mouse, in vivo
[32] = Cmax of aliskiren hemifumarate following 4 week oral dietary dosing of aliskiren hemifumarate at 1000 mg.Kg-1 level in female mouse; format: ADME, organism-based; details: CB6F1-TGrasH2, mouse, in vivo
[33] = AUC (0-24h) of aliskiren hemifumarate following 4 week oral dietary dosing of aliskiren hemifumarate at 2000 mg.Kg-1 level in female mouse; format: ADME, organism-based; details: CB6F1-TGrasH2, mouse, plasma
[34] = Tmax of aliskiren hemifumarate following 2 week oral dosing of aliskiren hemifumarate at 100 mg.Kg-1 level studied on day 1 in female Callithrix jacchus; format: ADME, organism-based; details: marmoset, plasma
[35] = AUC(0-24h) of aliskiren hemifumarate following 2 week oral dosing of aliskiren hemifumarate at 50 mg.Kg-1 level studied on day 1 in female Callithrix jacchus; format: ADME, organism-based; details: marmoset, plasma
[36] = AUC(0-24h) of aliskiren hemifumarate following 2 week oral dosing of aliskiren hemifumarate at 10 mg.Kg-1 level studied on […] in male Callithrix jacchus; format: ADME, organism-based; details: marmoset, plasma
[37] = Cmin of aliskiren hemifumarate following repeated oral administration of [14C] aliskiren hemifumarate at 100 mg.Kg-1 level studied after first dosing in rat; format: ADME, organism-based, Albino HAN:WIST; details: in vivo
[38] = Cmax (0-168h) of unlabeled aliskiren hemifumarate following single intravenous administration of aliskiren hemifumarate at 1 mg.Kg-1 level in marmoset; format: ADME, organism-based, Callithrix jacchus; details: plasma

T1 sequence (P11712 whole entry): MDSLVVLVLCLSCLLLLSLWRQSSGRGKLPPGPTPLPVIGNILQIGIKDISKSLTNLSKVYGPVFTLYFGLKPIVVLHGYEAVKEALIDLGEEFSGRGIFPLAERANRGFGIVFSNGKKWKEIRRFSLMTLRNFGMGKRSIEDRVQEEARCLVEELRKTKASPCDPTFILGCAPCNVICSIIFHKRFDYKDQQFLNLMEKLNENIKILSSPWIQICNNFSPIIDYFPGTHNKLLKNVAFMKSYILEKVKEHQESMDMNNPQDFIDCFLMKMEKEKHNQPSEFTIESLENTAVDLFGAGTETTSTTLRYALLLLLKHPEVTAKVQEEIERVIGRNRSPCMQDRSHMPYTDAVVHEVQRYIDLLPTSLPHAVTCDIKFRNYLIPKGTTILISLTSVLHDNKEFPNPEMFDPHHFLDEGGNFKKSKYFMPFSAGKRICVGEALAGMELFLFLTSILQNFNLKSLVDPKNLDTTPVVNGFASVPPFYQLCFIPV
T2 sequence (P33261 whole entry): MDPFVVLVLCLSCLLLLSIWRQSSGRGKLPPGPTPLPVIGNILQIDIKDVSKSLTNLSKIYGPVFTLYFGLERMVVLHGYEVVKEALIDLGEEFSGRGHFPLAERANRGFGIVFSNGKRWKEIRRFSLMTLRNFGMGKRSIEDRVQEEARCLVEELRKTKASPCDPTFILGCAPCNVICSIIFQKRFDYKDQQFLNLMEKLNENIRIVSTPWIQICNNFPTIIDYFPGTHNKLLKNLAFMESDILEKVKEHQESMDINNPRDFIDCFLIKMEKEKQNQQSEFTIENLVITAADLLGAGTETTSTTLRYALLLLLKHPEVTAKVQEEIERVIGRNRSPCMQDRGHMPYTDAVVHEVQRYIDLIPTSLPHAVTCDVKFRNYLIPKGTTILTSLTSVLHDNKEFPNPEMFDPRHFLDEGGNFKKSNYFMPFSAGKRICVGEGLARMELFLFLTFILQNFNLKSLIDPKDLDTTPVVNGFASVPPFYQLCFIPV
Chain of Cytochrome P450 3A7 (P24462 whole entry): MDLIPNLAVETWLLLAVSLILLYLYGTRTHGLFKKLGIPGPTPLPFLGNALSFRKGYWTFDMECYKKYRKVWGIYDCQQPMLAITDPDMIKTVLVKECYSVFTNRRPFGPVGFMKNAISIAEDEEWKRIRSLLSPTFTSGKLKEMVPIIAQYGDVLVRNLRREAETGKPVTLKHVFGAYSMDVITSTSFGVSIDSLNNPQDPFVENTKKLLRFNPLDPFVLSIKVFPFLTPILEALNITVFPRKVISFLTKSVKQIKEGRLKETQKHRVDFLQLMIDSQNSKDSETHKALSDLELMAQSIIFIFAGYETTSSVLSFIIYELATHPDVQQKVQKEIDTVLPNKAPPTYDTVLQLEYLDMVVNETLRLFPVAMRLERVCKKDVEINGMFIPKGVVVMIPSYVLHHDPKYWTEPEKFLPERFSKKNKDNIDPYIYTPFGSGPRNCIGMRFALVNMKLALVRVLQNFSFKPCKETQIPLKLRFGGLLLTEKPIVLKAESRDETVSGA

`COCCCOc1cc(C[C@@H](C[C@H](N)[C@@H](O)C[C@H](C(=O)NCC(C)(C)C(N)=O)C(C)C)C(C)C)ccc1OC` gave a half-life [1] of 54 h, a half-life [2] of 34 h and an inhibition at 20 µM (CYP2C9 [3]) of 13.1%. The inhibition at 200 µM (CYP2C9 [4]) was 15.8%, the inhibition at 20 µM (CYP2C19 [5]) was -1.5% and the inhibition at 20 µM (CYP2C19 [6]) was 5.1%. It also gave a Compound recovery [7] of 61.8%.

In the case of `COCCCOc1cc(C[C@@H](C[C@H](N)[C@@H](O)C[C@H](C(=O)NCC([14CH3])([14CH3])C(N)=O)C(C)C)C(C)C)ccc1OC.O=C(O)/C=C/C(=O)O`, the Radiolabel recovery [8] was 51.5%, the Radiolabel recovery [9] was 97.5% and the Radiolabel recovery [10] was 86%. The Cmax [11] was 14.6 µM, the Radiolabel recovery [12] was 84.68% and the Radiolabel recovery [13] was 10.51%. The Plasma clearance [14] was 1.28 L·h/kg, the Radiolabel recovery [15] was “OUTCOME = Observed/Elimination of radioactivity was mainly via biliary route” and the Radiolabel recovery [16] was 36.1%. For the same compound, the CL (Cytochrome P450 3A7) was 3.5 µL·min/nmol, the Cmax [17] was 0.473 µM and the Radiolabel recovery [18] was “OUTCOME = Observed, VALUE = Highest radioactivity concentration was observed”. For the same compound, the Radiolabel recovery [19] was “OUTCOME = Detected” and the Radiolabel recovery [20] was “OUTCOME = Detected”.

With `COCCCOc1cc(C[C@@H](C[C@H](N)[C@@H](O)C[C@H](C(=O)NCC(C)(C)C(N)=O)C(C)C)C(C)C)ccc1OC.COCCCOc1cc(C[C@@H](C[C@H](N)[C@@H](O)C[C@H](C(=O)NCC(C)(C)C(N)=O)C(C)C)C(C)C)ccc1OC.O=C(O)/C=C/C(=O)O` [ALISKIREN FUMARATE] the AUC [21] was 9.03 µM·h, the Cmax normalised [22] was 0.0027 (umol/L)/(mg/kg) and the BUN_CHANGE_BY [23] was 274%. The “Plasma magnesium_CHANGE_BY” value [24] was 130%, the Cmax [25] was 10600 ng/mL and the Cmax normalised [26] was 0.079 (ug/ml)/(mg/kg). For the same compound, the “Change in ovarian follicular atresia” value [27] was “OUTCOME = Increased. No animals died during the study”, the “Change in density of uterine gland” value [28] was “OUTCOME = Decreased. No animals died during the study” and the AUC normalised [29] was 1.26 (umol.h/L)/(mg/kg). It also gave a bioavailability [30] of 2.4%, a Cmax [31] of 439 ng/mL and a Cmax [32] of 167 ng/mL. For the same compound, the AUC(0-t) at 24 h [33] was 11800 ng·h/mL, the Tmax [34] was 1 h and the AUC(0-t) at 24 h [35] was 56200 ng·h/mL. The AUC at 24 h [36] was 33900 ng·h/mL, the “Cmin(1)” value [37] was 0.00347 µM and the Cmax [38] was 14.2 µM.
